According to US9845313B2, “Cycloalkane derivatives” (Daiichi Sankyo Company, Limited, priority 2012, dated 2017):

Assays:
[1] = tested on: patients of painful diabetic neuropathy; details: cited from earlier work
hNav1.7 = hNav1.7 (Homo sapiens (Human), UniProt Q15858); assay: Electrophysiological evaluation, automated patch clamp IonWorks Quattro, hNav 1.7/β1/β2 HEK293A cells; type: cell-based; details: response caused by the second depolarization pulse (pre-pulse potential set to V1/2); HEK293A hNav 1.7/β1/β2 cells; Population Patch Clamp
Sequence of hNav1.7 (Q15858 whole entry): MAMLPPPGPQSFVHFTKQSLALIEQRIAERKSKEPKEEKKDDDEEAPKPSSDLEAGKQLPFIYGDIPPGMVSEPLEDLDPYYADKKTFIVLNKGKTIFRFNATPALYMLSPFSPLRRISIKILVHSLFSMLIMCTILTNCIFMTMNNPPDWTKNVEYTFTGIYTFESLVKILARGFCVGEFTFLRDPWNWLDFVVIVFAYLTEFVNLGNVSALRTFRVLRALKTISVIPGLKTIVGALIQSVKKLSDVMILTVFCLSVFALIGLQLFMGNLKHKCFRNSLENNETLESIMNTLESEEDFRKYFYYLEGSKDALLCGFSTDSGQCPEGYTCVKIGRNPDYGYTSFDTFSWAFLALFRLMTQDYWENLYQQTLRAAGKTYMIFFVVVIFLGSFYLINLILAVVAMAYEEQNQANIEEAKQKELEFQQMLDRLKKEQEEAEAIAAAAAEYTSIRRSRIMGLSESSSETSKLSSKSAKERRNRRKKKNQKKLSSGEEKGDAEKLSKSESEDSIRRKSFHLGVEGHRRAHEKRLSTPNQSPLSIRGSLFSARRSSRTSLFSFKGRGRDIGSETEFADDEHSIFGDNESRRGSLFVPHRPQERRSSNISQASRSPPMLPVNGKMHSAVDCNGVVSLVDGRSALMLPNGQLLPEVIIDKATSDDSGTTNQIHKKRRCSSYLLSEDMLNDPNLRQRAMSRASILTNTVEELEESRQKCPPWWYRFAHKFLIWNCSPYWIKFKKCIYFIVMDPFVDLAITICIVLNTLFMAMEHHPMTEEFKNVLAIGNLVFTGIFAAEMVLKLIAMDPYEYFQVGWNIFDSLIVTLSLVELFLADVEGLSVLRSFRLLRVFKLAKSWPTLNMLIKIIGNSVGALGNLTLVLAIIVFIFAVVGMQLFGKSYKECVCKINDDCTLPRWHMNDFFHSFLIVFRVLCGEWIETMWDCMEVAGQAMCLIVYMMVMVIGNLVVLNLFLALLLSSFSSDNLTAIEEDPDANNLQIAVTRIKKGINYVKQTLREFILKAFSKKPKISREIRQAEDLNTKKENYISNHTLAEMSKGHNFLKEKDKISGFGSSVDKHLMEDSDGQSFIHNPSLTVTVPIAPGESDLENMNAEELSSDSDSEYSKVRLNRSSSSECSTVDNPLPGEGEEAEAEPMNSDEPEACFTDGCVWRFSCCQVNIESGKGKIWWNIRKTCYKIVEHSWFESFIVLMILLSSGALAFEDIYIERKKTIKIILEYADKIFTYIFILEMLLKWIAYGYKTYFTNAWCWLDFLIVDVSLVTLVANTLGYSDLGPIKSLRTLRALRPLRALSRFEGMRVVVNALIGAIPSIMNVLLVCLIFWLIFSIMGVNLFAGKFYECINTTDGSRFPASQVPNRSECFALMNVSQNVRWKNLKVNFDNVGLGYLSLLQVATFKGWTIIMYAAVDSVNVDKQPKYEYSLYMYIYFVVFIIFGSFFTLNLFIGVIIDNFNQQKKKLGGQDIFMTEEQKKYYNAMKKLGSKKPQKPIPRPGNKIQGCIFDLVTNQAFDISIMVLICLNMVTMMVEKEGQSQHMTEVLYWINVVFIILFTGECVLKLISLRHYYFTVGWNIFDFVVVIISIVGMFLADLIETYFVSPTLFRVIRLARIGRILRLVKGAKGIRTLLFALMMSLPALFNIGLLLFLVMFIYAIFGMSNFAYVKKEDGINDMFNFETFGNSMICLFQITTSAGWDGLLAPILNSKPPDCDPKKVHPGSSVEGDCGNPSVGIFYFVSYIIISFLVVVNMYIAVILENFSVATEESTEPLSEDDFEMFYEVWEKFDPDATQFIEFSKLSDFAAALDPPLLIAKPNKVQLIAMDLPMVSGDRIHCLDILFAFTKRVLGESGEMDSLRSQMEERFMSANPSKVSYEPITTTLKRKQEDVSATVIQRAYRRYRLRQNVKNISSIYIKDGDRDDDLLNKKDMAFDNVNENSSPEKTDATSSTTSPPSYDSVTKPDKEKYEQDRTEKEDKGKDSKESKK
Sequence of hNav1.7 (Q07699 19-218 partner): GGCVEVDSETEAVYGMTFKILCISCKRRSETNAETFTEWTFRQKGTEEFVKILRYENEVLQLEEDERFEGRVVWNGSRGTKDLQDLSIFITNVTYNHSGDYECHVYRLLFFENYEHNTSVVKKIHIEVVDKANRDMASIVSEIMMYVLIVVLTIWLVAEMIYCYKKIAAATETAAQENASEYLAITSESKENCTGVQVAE
Sequence of hNav1.7 (O60939 30-215 partner): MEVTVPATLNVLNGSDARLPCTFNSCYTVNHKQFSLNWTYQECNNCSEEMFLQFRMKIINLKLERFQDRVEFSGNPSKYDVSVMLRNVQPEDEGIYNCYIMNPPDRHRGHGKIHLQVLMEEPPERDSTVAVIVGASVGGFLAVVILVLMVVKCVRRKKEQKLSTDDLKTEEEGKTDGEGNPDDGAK

Which “effective therapeutic ratio based on self-evaluation of patients” value [1] does the source give for `CC(C)C[C@H](CN)CC(=O)O` [pregabalin] here?
The value was “approximately 50%”.

For `O=S(=O)(Nc1ncns1)c1cc(F)c(O[C@@H]2CCCC[C@@H]2c2ccccc2)cc1F` (relative stereo) [Example 3, 2,5-Difluoro-4-{[(1R*,2R*)-2-phenylcyclohexyl]oxy}-N-(1,2,4-thiadiazol-5-yl)benzenesulfonamide], which IC50 (hNav1.7) is on record?
The IC50 was 270 nM.
